In the supplement of paper PMC10307832:

Legend:
Assay in all cases: relative viability (nuclei count vs DMSO), 5 days (fraction); higher = more cells survive
[1] = compound: CC1(COc2ccc3c(c2)ncn3-c2ccc3cccc(N4CCC(N)CC4)c3n2)COC1 [Crenolanib] + CC(=O)c1c(C)c2cnc(Nc3ccc(N4CCNCC4)cn3)nc2n(C2CCCC2)c1=O [Palbociclib] (partner 0.5 µM)
Procedure, shortened: (§1)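 Lung cancer cell lines, seeded in 1536-well plates, were treated the following day by pin tool with a single drug or with five library-drug doses (not always all listed) in √10 steps on top of a fixed anchor-drug dose. Cells were fixed and nuclei stained in one step after 5 days, and nuclei were counted. Relative viability is the nuclei count for treated wells divided by that for vehicle wells, reported as medians of duplicate plates.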

[2] = compound: O=C1NC(=O)[C@@H](c2cn3c4c(cccc24)CCC3)[C@@H]1c1c[nH]c2ccccc12 [Tivantinib] + CC(=O)c1c(C)c2cnc(Nc3ccc(N4CCNCC4)cn3)nc2n(C2CCCC2)c1=O [Palbociclib] (partner 0.5 µM)
Procedure, shortened: as §1

[3] = compound: CC1(COc2ccc3c(c2)ncn3-c2ccc3cccc(N4CCC(N)CC4)c3n2)COC1 [Crenolanib] + CCNC(=O)c1noc(-c2cc(C(C)C)c(O)cc2O)c1-c1ccc(CN2CCOCC2)cc1 [Luminespib] (partner 0.01 µM)
Procedure, shortened: as §1

[4] = compound: CC1(COc2ccc3c(c2)ncn3-c2ccc3cccc(N4CCC(N)CC4)c3n2)COC1 [Crenolanib] + NC(=O)Nc1cc(-c2cccc(F)c2)sc1C(=O)N[C@H]1CCCNC1 [AZD7762] (partner 0.2 µM)
Procedure, shortened: as §1

| Cell Line | relative viability ([1]; first compound 0.01 µM) | relative viability ([1]; first compound 0.03162 µM) | relative viability ([1]; first compound 0.1 µM) | relative viability ([1]; first compound 0.3162 µM) | relative viability ([1]; first compound 1 µM) | relative viability ([2]; first compound 0.01 µM) | relative viability ([2]; first compound 0.03162 µM) | relative viability ([2]; first compound 0.1 µM) | relative viability ([2]; first compound 0.3162 µM) | relative viability ([3]; first compound 0.01 µM) | relative viability ([3]; first compound 0.03162 µM) | relative viability ([3]; first compound 0.1 µM) | relative viability ([3]; first compound 0.3162 µM) | relative viability ([3]; first compound 1 µM) | relative viability ([4]; first compound 0.01 µM) | relative viability ([4]; first compound 0.03162 µM) | relative viability ([4]; first compound 0.1 µM) | relative viability ([4]; first compound 0.3162 µM) | relative viability ([4]; first compound 1 µM) |
| --- | --- | --- | --- | --- | --- | --- | --- | --- | --- | --- | --- | --- | --- | --- | --- | --- | --- | --- | --- |
| SK-MES-1 | 0.335 | 0.32 | 0.31 | 0.314 | 0.34 | 0.336 | 0.345 | 0.296 | 0.361 | 0.827 | 0.728 | 0.699 | 0.83 | 0.57 |  |  |  |  |  |
| NCI-H520 | 0.252 | 0.214 | 0.289 | 0.267 | 0.309 | 0.263 | 0.213 | 0.2 | 0.203 | 0.19 | 0.269 | 0.279 | 0.216 | 0.221 |  |  |  |  |  |
| NCI-H661 | 0.433 | 0.416 | 0.424 | 0.408 | 0.43 | 0.453 | 0.395 | 0.397 | 0.315 | 0.939 | 0.88 | 0.893 | 0.958 | 0.959 |  |  |  |  |  |
| NCI-H2228 | 0.758 | 0.866 | 0.629 | 0.92 | 0.815 | 0.895 | 0.794 | 0.652 | 0.602 | 0.137 | 0.15 | 0.105 | 0.193 | 0.228 |  |  |  |  |  |
| NCI-H596 |  |  |  |  |  |  |  |  |  | 1.11 | 0.97 | 0.932 | 1.12 | 1.11 | 1.27 | 1.16 | 1.03 | 1.22 | 1.11 |
| NCI-H2023 | 0.358 | 0.373 | 0.386 | 0.434 | 0.335 | 0.447 | 0.376 | 0.334 | 0.327 | 0.839 | 0.704 | 0.639 | 1 | 0.453 |  |  |  |  |  |
